Assay results taken from patent publication US20190352358A1, “COMPOUNDS, COMPOSITIONS AND USES THEREOF FOR IMPROVEMENT OF BONE DISORDERS” (ALIZE PHARMA III SAS, priority 2017, published 2019).
Residues, ends and D or L forms follow the SMILES beside them. No end group written: not given here. *: point of attachment. C16 diacid = O=C(O)CCCCCCCCCCCCCCC(=O)*; Arachidoyl = CCCCCCCCCCCCCCCCCCCC(=O)*; Stearoyl = CCCCCCCCCCCCCCCCCC(=O)*; Palmitoyl = CCCCCCCCCCCCCCCC(=O)*

Experiments:
[1] = Stability of HBD1 fragments in human plasma; format: in vitro ADME; settings: for Remaining parent peptide in human plasma 48 hours post spike / remaining at 24 h, 1 μg/mL / remaining at 48 h, 1 μg/mL / Remaining parent peptide in human plasma 24 hours post spike: spiked at 1 μg/mL, 37° C.; for stability in human plasma (in words): 24 and 48 hours incubation at 37° C.; for remaining at 24 h, 1 μg/mL / remaining at 48 h, 1 μg/mL: human, human K2EDTA plasma; for remaining at 24 h, 1 μg/mL: read-out: Remaining parent peptide in human plasma 24 hours post spike; for remaining at 48 h, 1 μg/mL: read-out: Remaining parent peptide in human plasma 48 hours post spike
Experimental: The peptides were spiked at 1 μg/mL (peptide backbone) into pre-warmed human K2EDTA plasma (at 37° C.) and incubated for up to 48 hours. Aliquots of plasma were extracted at specific time points (0, 24 and 48 hours post spike). Extraction was performed with acetonitrile:water (75:25, v/v) for HBD1 (1-13), HBD1 (1-13) with palmitic acid at the N-terminus (C16:0), HBD1 (3-11) with palmitic acid at the N-terminus (C16:0)) and HBD1 (3-11) with stearic acid at the N-terminus (C18:0) or with acetonitrile:water:formic acid (75:25:0.1, v/v/v) for HBD1 (3-11) and cyclic HBD1 (3-11). The peptides were analyzed using developed LC (C18 reverse phase column)—positive ion electrospray MS/MS methods specific to each peptide. The peak area at each time point was expressed as a percentage of the value obtained for the t=0 minutes time point.

[2] = Pharmacokinetics of acylated analogs in male Sprague Dawley rats after subcutaneous injection (Example 11); format: in vivo; design: AUC(0-t): concentration or dose not given beside the values; settings: sc, rat; for AUC(0-t) / Cmax / Tmax: male, Sprague Dawley, plasma; for AUC(0-t) / Cmax / Tmax / Tlast (last time point with detectable peptide): Table 24
Experimental: The peptides were reconstituted in saline (0.9% NaCl). Three male Sprague Dawley rats (approximately 6 weeks of age) were used per group. Subcutaneous doses were administered into the right flank of each animal […]. Following dosing, serial whole blood samples (ca. 0.3 mL) were collected from retro-orbital sinus into K2EDTA treated containers. Following each blood sample collection, samples were placed into a cooling block at 4° C. Samples were collected prior to dosing then at 15 and 30 minutes then 1, 2, 4, 6, 8 and 24 hours post dose for subcutaneous injection. Blood samples were centrifuged at 3500×rpm for 10 minutes at 4° C. and resultant plasma aspirated off into clean fully, labelled tubes. Plasma samples were snap frozen following aspiration then stored at −80° C. The peptides were extracted with acetonitrile:water (75:25, v/v) and analyzed using developed LC-MS/MS methods as described in Example 9. The limits of detection of these methods are 0.003 nmol/mL for HBD1 (1-13) with palmitic acid at the N-terminus (C16:0), 0.0008 nmol/mL for HBD1 (3-11) with palmitic acid at the N-terminus (C16:0), 0.0070 nmol/mL for HBD1 (3-11) with stearic acid at the N-terminus (C18:0), and 0.0015 nmol/mL for HBD1 (3-11) with myristic acid at the N-terminus (C14:0), HBD1 (3-11) with arachidic acid at the N-terminus (C20:0), HBD1 (3-11) with palmitic diacid at the N-terminus (C16:0-diacid), HBD1 (3-11) with palmitic acid at the C-terminus (C16:0). All values below these limits of quantification were considered as zero.

[3] = test system: MC-3T3 E1 clone 4 (CL4) osteoblast cells; experiment: Osteocalcin expression during in vitro osteoblast differentiation, acylated and cyclic analogs (Example 7); format: cell-based; settings: Table 18; test peptide 1 μg/L; 18-21 day interval
Experimental: Each acylated peptide was tested in a biologic assay measuring its ability to stimulate differentiation of osteoblast cells over a 18-21 day interval as assessed by the stimulation of osteocalcin protein synthesis. MC-3T3 E1 clone 4 (CL4) osteoblast cells were obtained from ATCC (Manassas, Va., USA). Cells were cultured in α-MEM containing 10% fetal bovine serum (FBS; Thermo Fisher Scientific, Pittsburgh, Pa., USA). After confluency, culture medium was changed to differentiation medium (DM), which contained 10% FBS plus 50 μg/mL ascorbic acid and 4 mM β-glycerol phosphate, with or without a test peptide (1 μg/L). Fresh DM, with or without test peptide, was applied every 72 hours. The cell monolayers were lysed in a modified radioimmunoprecipitation assay (RIPA) buffer. Total cellular protein in the lysates was determined using BCA (Thermo Fisher Scientific, Rockford, Ill., USA). Cell proteins are separated on SDS-PAGE gel and transferred on PVDF membrane for analysis. Osteocalcin detection was performed using anti-osteocalcin antibody at 1:200 dilution (Santa Cruz Biotechnology, Inc, Santa Cruz, Calif., USA) and visualized using enhanced chemiluminescence (Thermo Fisher Scientific, Rockford, Ill., USA).
In a separate experiment, the effect of cyclization was examined on of the HBD1 (3-11) peptide. The cyclic HBD1 (3-11) was synthetized and tested on the in vitro osteoblast differentiation assay.

[4] = Pharmacokinetics in male Sprague Dawley rats after intravenous and subcutaneous injection (Example 10); format: in vivo; settings: 1 μmol net peptide/kg, rat; for exposure after administration by either dose route (in words): iv and sc
Experimental: The peptides were reconstituted in saline (0.9% NaCl). Three male Sprague Dawley rats were used per group. Intravenous doses were administered into a lateral tail vein at the dose of 1 μmol net peptide/kg. Subcutaneous doses were administered into the right flank of each animal, also at the dose of 1 μmol net peptide/kg. Following dosing, serial whole blood samples (ca. 0.25 mL) were collected from a lateral tail vein into K2EDTA treated containers. Following each blood sample collection, samples were placed into a cooling block at 4° C. Samples were collected prior to dosing then at 2, 5, 15 and 30 minutes then 1, 2, 4, 6 and 8 and 24 hours post dose for intravenous injection and at 15 and 30 minutes then 1, 2, 4, 6, 8 and 24 hours post dose for subcutaneous injection.
Blood samples were centrifuged at 10000×g for 2 minutes at 4° C. and resultant plasma aspirated off into clean fully, labelled tubes. Plasma samples were snap frozen following aspiration then stored at −80° C. Peptides were extracted and analyzed as described in Example 9. The limits of quantification of these methods were 0.001 nmol/mL for cyclic HBD1 (3-11) and HBD1 (3-11) and 0.003 nmol/mL for HBD1 (1-13). All values below these limits of quantification were considered as zero.

[5] = male, Sprague Dawley, plasma, iv
[6] = male, Sprague Dawley, plasma, sc

## CCCCCCCCCCCCCCCC(=O)N[C@@H](CCCCN)C(=O)N[C@@H](Cc1c[nH]cn1)C(=O)N[C@@H](Cc1c[nH]cn1)C(=O)N[C@@H](CC(C)C)C(=O)NCC(=O)N[C@@H](CC(C)C)C(=O)N[C@@H](CCC(=O)O)C(=O)N[C@@H](CCC(=O)O)C(=O)N1CCC[C@H]1C(=O)N[C@@H](CCCCN)C(=O)N[C@@H](CCCCN)C(=O)N[C@@H](CC(C)C)C(=O)N[C@@H](CCCNC(=N)N)C(=O)O [SEQ ID NO: 78, C16:0-KHHLGLEEPKKLR] (Palmitoyl-KHHLGLEEPKKLR-OH; C-terminus assumed)
[1]
  Remaining parent peptide in human plasma 48 hours post spike: 52%

## CCCCCCCCCCCCCCCC(=O)N[C@@H](Cc1c[nH]cn1)C(=O)N[C@@H](CC(C)C)C(=O)NCC(=O)N[C@@H](CC(C)C)C(=O)N[C@@H](CCC(=O)O)C(=O)N[C@@H](CCC(=O)O)C(=O)N1CCC[C@H]1C(=O)N[C@@H](CCCCN)C(=O)N[C@@H](CCCCN)C(=O)O [compound 72] (Palmitoyl-HLGLEEPKK-OH)
[1]
  stability in human plasma (in words): similar
  remaining at 24 h, 1 μg/mL: 94%
  remaining at 48 h, 1 μg/mL: 87%
[2]
  AUC(0-t): 1.34 µM·h
  Cmax: 350 nM
  Tmax: 1 h
  Tlast (last time point with detectable peptide): 8 h

## KHHLGLEEPKKLR [compound 1]
[1]
  remaining at 24 h, 1 μg/mL: 29%
  remaining at 48 h, 1 μg/mL: 18%

## CCCCCCCCCCCCCCCC(=O)N[C@@H](CCCCN)C(=O)N[C@@H](Cc1c[nH]cn1)C(=O)N[C@@H](Cc1c[nH]cn1)C(=O)N[C@@H](CC(C)C)C(=O)NCC(=O)N[C@@H](CC(C)C)C(=O)N[C@@H](CCC(=O)O)C(=O)N[C@@H](CCC(=O)O)C(=O)N1CCC[C@H]1C(=O)N[C@@H](CCCCN)C(=O)N[C@@H](CCCCN)C(=O)N[C@@H](CC(C)C)C(=O)N[C@@H](CCCNC(=N)N)C(=O)O [compound 78] (Palmitoyl-KHHLGLEEPKKLR-OH)
[1]
  remaining at 24 h, 1 μg/mL: 58%
  remaining at 48 h, 1 μg/mL: 52%
[2]
  AUC(0-t): 0.01 µM·h
  Cmax: 10 nM
  Tmax: 6 h
  Tlast (last time point with detectable peptide): 8 h

## CCCCCCCCCCCCCCCC(=O)N[C@@H](Cc1c[nH]cn1)C(=O)N[C@@H](Cc1c[nH]cn1)C(=O)N[C@@H](CC(C)C)C(=O)NCC(=O)N[C@@H](CC(C)C)C(=O)N[C@@H](CCC(=O)O)C(=O)N[C@@H](CCC(=O)O)C(=O)N1CCC[C@H]1C(=O)N[C@@H](CCCCN)C(=O)N[C@@H](CCCCN)C(=O)O [compound 68] (Palmitoyl-HHLGLEEPKK-OH; C-terminus assumed)
[3]
  Fold increase vs DM ± SE: 2.52 ± 0.52 fold

## CCCCCCCCCCCCCCCCCCCC(=O)N[C@@H](Cc1c[nH]cn1)C(=O)N[C@@H](Cc1c[nH]cn1)C(=O)N[C@@H](CC(C)C)C(=O)NCC(=O)N[C@@H](CC(C)C)C(=O)N[C@@H](CCC(=O)O)C(=O)N[C@@H](CCC(=O)O)C(=O)N1CCC[C@H]1C(=O)N[C@@H](CCCCN)C(=O)N[C@@H](CCCCN)C(=O)O [compound 70] (Arachidoyl-HHLGLEEPKK-OH; C-terminus assumed)
[3]
  Fold increase vs DM ± SE: 2.11 ± 0.11 fold

## CC(C)C[C@H](NC(=O)CNC(=O)[C@H](CC(C)C)NC(=O)[C@H](Cc1c[nH]cn1)NC(=O)CCCCCCCCCCCCCCC(=O)O)C(=O)N[C@@H](CCC(=O)O)C(=O)N[C@@H](CCC(=O)O)C(=O)N1CCC[C@H]1C(=O)N[C@@H](CCCCN)C(=O)N[C@@H](CCCCN)C(=O)O [compound 75] ({C16 diacid}-HLGLEEPKK-OH; C-terminus assumed)
[3]
  Fold increase vs DM ± SE: 3.39 ± 0.19 fold
[2]
  AUC(0-t): 1.14 µM·h
  Cmax: 580 nM
  Tmax: 0.25 h
  Tlast (last time point with detectable peptide): 8 h

## CC(C)C[C@@H]1NC(=O)CNC(=O)[C@H](CC(C)C)NC(=O)[C@H](Cc2c[nH]cn2)NC(=O)[C@H](CCCCN)NC(=O)[C@H](CCCCN)NC(=O)[C@@H]2CCCN2C(=O)[C@H](CCC(=O)O)NC(=O)[C@H](CCC(=O)O)NC1=O [compound 77] (cyclo(EEPKKHLGL))
[1]
  stability in human plasma (in words): similar
  remaining at 24 h, 1 μg/mL: 98%
  remaining at 48 h, 1 μg/mL: 95%

## CCCCCCCCCCCCCCCC(=O)N[C@@H](Cc1c[nH]cn1)C(=O)N[C@@H](CC(C)C)C(=O)NCC(=O)N[C@@H](CC(C)C)C(=O)N[C@@H](CCC(=O)O)C(=O)N[C@@H](CCC(=O)O)C(=O)N1CCC[C@H]1C(=O)N[C@@H](CCCCN)C(=O)N[C@@H](CCCCN)C(=O)O [SEQ ID NO: 72, C16:0-HLGLEEPKK] (Palmitoyl-HLGLEEPKK-OH; C-terminus assumed)
[4]; male, Sprague Dawley, plasma, subcutaneous, sc vs iv, read-out: F (bioavailability)
  bioavailability: 35%
[4]; [5]
  AUC(0-t): 4.46 µM·h
  Cmax: 7890 nM
  Tmax: 0.033 h
[4]; [6]
  AUC(0-t): 1.57 µM·h
  Cmax: 410 nM
  Tmax: 1 h

## KHHLGLEEPKKLR [SEQ ID NO: 1, KHHLGLEEPKKLR, reference compound]
[1]
  stability in human plasma (in words): markedly degraded
  Remaining parent peptide in human plasma 24 hours post spike: 29%
  Remaining parent peptide in human plasma 48 hours post spike: 18%
[4]
  exposure after administration by either dose route (in words): no quantifiable exposure

## HLGLEEPKK [SEQ ID NO: 10, HLGLEEPKK]
[1]
  stability in human plasma (in words): very stable
  Remaining parent peptide in human plasma 24 hours post spike: 92%
  Remaining parent peptide in human plasma 48 hours post spike: 87%
[4]
  exposure after administration by either dose route (in words): no quantifiable exposure

## CCCCCCCCCCCCCCCCCC(=O)N[C@@H](Cc1c[nH]cn1)C(=O)N[C@@H](Cc1c[nH]cn1)C(=O)N[C@@H](CC(C)C)C(=O)NCC(=O)N[C@@H](CC(C)C)C(=O)N[C@@H](CCC(=O)O)C(=O)N[C@@H](CCC(=O)O)C(=O)N1CCC[C@H]1C(=O)N[C@@H](CCCCN)C(=O)N[C@@H](CCCCN)C(=O)O [compound 69] (Stearoyl-HHLGLEEPKK-OH; C-terminus assumed)
[3]
  Fold increase vs DM ± SE: 2.48 ± 0.27 fold

## HLGLEEPKK [compound 10]
[1]
  remaining at 24 h, 1 μg/mL: 92%
  remaining at 48 h, 1 μg/mL: 87%

## CCCCCCCCCCCCCCCCCCCC(=O)N[C@@H](Cc1c[nH]cn1)C(=O)N[C@@H](CC(C)C)C(=O)NCC(=O)N[C@@H](CC(C)C)C(=O)N[C@@H](CCC(=O)O)C(=O)N[C@@H](CCC(=O)O)C(=O)N1CCC[C@H]1C(=O)N[C@@H](CCCCN)C(=O)N[C@@H](CCCCN)C(=O)O [SEQ ID NO: 74, C20:0-HLGLEEPKK] (Arachidoyl-HLGLEEPKK-OH; C-terminus assumed)
[2]
  peptide exposure compared among acylated peptides (in words): lower exposure than HBD1 (3-11) with stearic acid at the N-terminus (C18:0)
